In experiment [1] the test system is M2e. On the set-up: species or system BALB/c mice. The settings on record: mouse, in vivo.
Experiment [2] has as its system Influenza virus (A/PR8/8/34 strain, H1N1). Set-up: species or system BALB/c mice. The settings on record: mouse, in vivo.
The test system of experiment [3] is M2e. Set-up: species or system BALB/c mice. The settings on record: mouse, in vivo. This is another data set of the same source.
Experiment [4] relates to Influenza virus (A/PR8/8/34 strain, H1N1). The class given is in vivo, BALB/c mice. The note with it: 21 days.

Experimental findings from patent US8883165B2, “Modified peptide vaccine derived from influenza M2” (The Chemo-Sero-Therapeutic Research Institute, priority 2009, dated 2014) are described below.

Values joined by “and” are separate entries in the source; they are usually repeats but may differ in a detail not shown here. Equal entries are not always repeated. “Also recorded” adds a separate entry of the source. Where two headings read alike, the source gives them in different places.

Take “SLLTEVETPIRNEWGCRCNDSSD (Influenza A virus) [M2e, peptide of 23 amino acid residues, positions No. 2 to No. 24 of M2 in influenza virus type A, no cysteine inserted, reference compound]”: the “anti-M2e antibody titer just before challenge” value in experiment [1] is on record as “could not induce an anti-M2e antibody titer”. Besides, in experiment [2], the Survival rate is 3/8.

Turning to “SLLTEVETPTRSEWECRCSDSSD [swM2e, reference compound]”, in experiment [3], the “anti-M2e antibody titer immediately before challenge” value was “high anti-M2e antibody titer; also recorded: almost no increase in an antibody titer”. Besides, the Survival rate in experiment [4] is 4/10 and 8/10.
